≈ marks a conversion by molar mass, not a printed value. Read-outs that look alike come from different tables or passages of the source.
Tests used:
[1] = target: T1, tyrosinase (Agaricus bisporus, UniProt C7FF04); assay: Fluorescence spectra analysis of tyrosinase; format: binding, mushroom; details: 6 mM; excitation 280 nm
T1 construct: purchased Sigma-Aldrich
Description: Carboxylic acid solutions at various concentrations were mixed with PBS buffer and tyrosinase (final concentration of 60 U/mL) and then transferred to a black 96-well plate. Fluorescence analysis was conducted using a microplate reader (Infinite 200Pro, Tecan).

[2] = L-DOPA auto-oxidation analysis; details: for L-DOPA auto-oxidation inhibition rate: 1.5 mM; for IC50: 37 °C, 12 h, calculated using SPSS, read-out: IC50 for L-DOPA auto-oxidation inhibition
Description: A 5 mM L-DOPA solution was prepared in PBS buffer (pH 7.4). Subsequently, 240 μL of carboxylic acid solution, 360 μL of L-DOPA solution, and 120 μL of PBS buffer were sequentially mixed. The mixture was then incubated at 37 °C for 12 h. […] Deionized water was used as the control. The inhibition of L-DOPA auto-oxidation was calculated using the same method as the melanin content analysis.

[3] = tested on: B16-F10 cells; assay: Melanin content analysis of B16-F10 cells (α-MSH stimulated); format: cell-based; details: Mus musculus, B16-F10, α-MSH 1 μM, 48 h, read-out: melanin inhibition rate; for inhibition at 6000 µM: 6 mM
Description: A 900 μL cell suspension with an approximate density of 50% confluence was seeded into a 12-well plate and cultured for 24 h at 37 °C with 5% CO2. Subsequently, various concentrations of carboxylic acids were added, and the cells were further incubated for 1 h. Then, 1 μL of 1 mM α-melanocyte-stimulating hormone (α-MSH) solution was added to achieve a final concentration of 1 μM, and the cells were cultured for an additional 48 h at 37 °C with 5% CO2 to stimulate melanogenesis. Afterward, the cells were digested with trypsin, collected by centrifugation at 10,000 rpm for 5 min (Andreas Hettich GmbH & Co., KG, Tuttlingen, Germany), and the supernatant was discarded. Each tube was treated with 200 μL of 1 M NaOH solution and incubated in a water bath at 60 °C for 20 min. Following incubation, the samples were vortexed to ensure homogeneity, and 200 μL of each sample was transferred to a 96-well plate. The absorbance at 405 nm (OD405) was measured using a microplate reader (Infinite 200Pro, Tecan), and the data were recorded to calculate the melanin content, with deionized water serving as the control. The reduction in melanin content was calculated with Equation (3):(3) [(OD405 of control−OD405 of sample)/OD405 of control]×100%

[4] = pH of carboxylic acid mixed with PBS buffer, without tyrosinase; format: physicochemical; details: in PBS buffer, absence of tyrosinase
[5] = target: mushroom tyrosinase (Agaricus bisporus, UniProt C7FF04); assay: Inhibition of mushroom tyrosinase activity (L-DOPA, OD475); format: biochemical; details: read-out: tyrosinase inhibition rate
Chain of mushroom tyrosinase (C7FF04 2-392): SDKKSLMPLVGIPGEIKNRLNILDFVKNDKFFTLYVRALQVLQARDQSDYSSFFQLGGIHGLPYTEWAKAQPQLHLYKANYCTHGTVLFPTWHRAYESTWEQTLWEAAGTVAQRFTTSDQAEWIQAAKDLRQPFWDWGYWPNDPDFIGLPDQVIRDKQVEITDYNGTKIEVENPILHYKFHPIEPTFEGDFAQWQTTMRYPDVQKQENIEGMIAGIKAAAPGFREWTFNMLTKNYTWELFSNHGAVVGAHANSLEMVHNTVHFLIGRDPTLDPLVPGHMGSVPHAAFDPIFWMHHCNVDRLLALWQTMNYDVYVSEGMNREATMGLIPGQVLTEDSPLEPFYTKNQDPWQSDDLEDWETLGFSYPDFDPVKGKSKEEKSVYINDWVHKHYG
Description: L-DOPA solution (5 mM) and tyrosinase (400 U/mL) (Sigma-Aldrich, St. Louis, MO, USA) were prepared in PBS buffer (pH 7.4) (Qingdao Hope Bio-Technology Co., Ltd., Qingdao, China). A reaction mixture was prepared by combining 240 μL of carboxylic acid at various concentrations, 360 μL of L-DOPA solution, and 120 μL of tyrosinase. […] Deionized water was used as the control.

[6] = target: T1, tyrosinase; assay: Kinetic analysis of tyrosinase (Lineweaver–Burk); format: biochemical, mushroom; details: for inhibition mechanism: Lineweaver–Burk double-reciprocal plots
Description: L-DOPA solutions at various concentrations (0.5, 1, 2, and 4 mM) were prepared in PBS buffer (pH 7.4) and mixed with carboxylic acids at different concentrations and tyrosinase (final concentration of 60 U/mL). […] The reaction rates were calculated based on the OD values. To analyze the inhibition types of the four carboxylic acids on tyrosinase, double-reciprocal Lineweaver–Burk plots were constructed with 1/v (reaction rate) as the y-axis and 1/[S] (substrate concentration) as the x-axis. The maximum reaction velocity (Vmax) and Michaelis constant (Km) were determined using GraphPad Prism 10 (GraphPad Software, Massachusetts, USA).

[7] = Cell viability of B16-F10 by MTT; format: cell-based; details: mouse, B16-F10 cells
Description: B16-F10 cells were seeded in 96-well plates at a density of 1 × 10^5 cells/mL and cultured at 37 °C with 5% CO2 for 24 h. Subsequently, various concentrations of carboxylic acids were added, and the cells were further incubated for 24 h. Then, 6 μL of MTT (5 mg/mL) was added, and the cells were cultured for an additional 4 h. Afterward, 200 μL of DMSO was added to dissolve the formazan crystals by gently pipetting up and down. The absorbance at 570 nm (OD570) was measured using a microplate reader (Infinite 200Pro, Tecan), with deionized water serving as the control. The cell viability was calculated with Equation (2): (2) [(OD570 of sample)/OD570 of control]×100%

[8] = cited from earlier work
[9] = target: tyrosinase from BioVision, Inc. (claimed to be of human origin); design: method as in PMID 38909081; details: cited from earlier work
[10] = tested on: guinea pigs; details: cited from earlier work
[11] = tested on: tyrosinase and Tyrp 1/2; details: Western blot; 300 and 500 μg/mL, 48 h intervals during 5 d culture; cited from earlier work
[12] = tested on: rats; details: cited from earlier work

T1 sequence (C7FF04 1-392 limits assumed): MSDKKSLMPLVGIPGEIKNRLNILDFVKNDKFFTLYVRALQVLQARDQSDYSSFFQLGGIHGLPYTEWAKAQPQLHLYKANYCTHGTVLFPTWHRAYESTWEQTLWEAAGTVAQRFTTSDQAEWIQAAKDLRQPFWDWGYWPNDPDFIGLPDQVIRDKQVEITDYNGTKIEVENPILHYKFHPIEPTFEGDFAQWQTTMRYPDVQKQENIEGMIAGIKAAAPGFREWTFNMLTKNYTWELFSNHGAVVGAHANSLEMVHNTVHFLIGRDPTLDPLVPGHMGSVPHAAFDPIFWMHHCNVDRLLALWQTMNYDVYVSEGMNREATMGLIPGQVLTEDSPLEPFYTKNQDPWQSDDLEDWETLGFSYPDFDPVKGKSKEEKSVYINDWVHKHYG

Row | Structure (SMILES) | decrease of tyrosinase fluorescence intensity [1] [%] | L-DOPA auto-oxidation inhibition rate [2] | IC50 [2] [µM] | inhibition at 6000 µM [3] [%] | pH ([4]; 6 mM) | inhibition mechanism [6] | viability at 24 h, 6 mM [7] [%] | IC50 DOPA auto-oxidation inhibition [8] [µg/mL] | further results
1 | O=C(O)[C@@H]1CCC(O)=N1 [L-pyroglutamic acid] | 48.6 | exceeding 80% | 660 | 27.8 | 3.7 | competitive inhibition | > 90 |  | inhibition at 6000 µM ([5]; 6 mM): > 80%; Ki [6]: 1950 µM
2 | O=C1O[C@H]([C@@H](O)CO)C(O)=C1O [ascorbic acid] |  |  |  |  |  |  |  | 989.6 (≈ 5.62 mM) | 
3 | O=c1cc(CO)occ1O [kojic acid, reference compound] |  |  |  |  |  |  |  | 418.5 (≈ 2.94 mM) | IC50 [9]: 9.27 µM
4 | CC(O)C(=O)O (centres unmarked) [lactic acid] | 45.0 | exceeding 80% | 570 | 14.1 | around 6 | mixed-type inhibition | > 90 |  | oral LD50 [10]: 1810 mg/kg; inhibition at 12000 µM ([3]; 12 mM): 29.4%; pH ([4]; 12 mM): 3.6; regulatory effect on melanogenesis-related proteins (tyrosinase and Tyrp 1/2) [11]: no significant regulatory effects; inhibition at 6000 µM [5]: 47%; inhibition at 12000 µM [5]: 89%; Ki ([6]; GraphPad Prism, mixed-model or competitive model, read-out: inhibition constant (Ki)): 2710 µM; inhibition constant (KIS) for enzyme–substrate complex ([6]; mixed-type inhibitors): 17.032 mM; viability at 24 h, 12 mM ([7]; 12 mM): 97%; oral LD50 [12]: 3730 mg/kg

Source: paper PMC11990924, “Inhibition of Tyrosinase and Melanogenesis by Carboxylic Acids: Mechanistic Insights and Safety Evaluation” (Molecules, 2025)
